Patent publication US5554752A, “Spirovesamicols” (Regents of the University of Minnesota, priority 1995, dated 1996)
Structures can show the parent of a compound that is named as a salt.

Legend:
vesamicol receptor [1] = assay: Vesamicol receptor binding ([3H]vesamicol); conditions: for Ki: [3H]vesamicol approx. 5 nM, 24 h equilibration, racemates, read-out: Ki (Inhibitory potency of Spirovesamicols)
vesamicol receptor [2] = conditions: literature, cited from earlier work
[3] = test system: cholinergic neurotransmission; assay: Pharmacological Activity of Spirovesamicols in Male Wistar Rats (anticholinergic signs and lethality, intraperitoneal); assay type: in vivo, rat; conditions: i.p.
Experimental: Rats and mice were injected intraperitoneally with solutions of the compounds in aqueous EtOH (or aqueous DMSO). […] LD20 lethal dose for 20% of animals tested; LD40, lethal dose for 40%; LD60, lethal dose for 60%; L100, lethal dose for all animals; NR, no visible pharmacologic reaction; S, sluggishness and reduced locomotor activity; +, mild symptoms of anticholinergic activity; ++, severe signs of anticholinergic activity.

[4] = test system: cholinergic neurotransmission; assay: Pharmacological Activity of Spirovesamicols in Male Swiss Webster Mice (anticholinergic signs and lethality, intraperitoneal); assay type: in vivo, mouse; conditions: i.p.
Experimental: In vivo anticholinergic activity was evaluated in Swiss Webster mice. Blockade of cholinergic neurotransmission (or anticholinergic activity) was manifested in a rapidly developing respiratory distress, spasms and paralysis. At lethal doses these symptoms were followed by death within 10-20 min. As evident in Tables 1 and 2, the representative compounds tested were lethal at doses as low as 10 umol/Kg.
Rats and mice were injected intraperitoneally with solutions of the compounds in aqueous EtOH (or aqueous DMSO). […] At lethal doses, death generally occurred within 20 minutes following the injection. LD20 lethal dose for 20% of animals tested; LD40, lethal dose for 40%; LD60, lethal dose for 60%; L100, lethal dose for all animals; NR, no visible pharmacologic reaction; S, sluggishness and reduced locomotor activity; +, mild symptoms of anticholinergic activity; ++, severe signs of anticholinergic activity.

[5] = test system: cholinergic neurotransmission; conditions: Brittain et al, 1969; cited from earlier work
[6] = test system: storage and release of neurotransmitter; conditions: literature; cited from earlier work
α-adrenoceptor = conditions: at higher doses; cited from earlier work

Compound: 1'(4-Hydroxy-1-(2-fluorobenzyl)piperidin-3-yl)-spiro[1H-indene-1,4'-piperidine]dihydrochloride [Compound 11f]
- Ki (vesamicol receptor [1]): 0.248 ± 0.025 nM

Compound: Nc1cccc2c1C[C@@H](N1CCC(c3ccccc3)CC1)[C@H](O)C2 (relative stereo) [Compound 2b]
- potency/activity relative to vesamicol, in words (vesamicol receptor [2]): a potent VR ligand

Compound: O[C@@H]1CCCC[C@H]1N1CCC(c2ccc(Cl)cc2)CC1 (relative stereo) [Compound 1b]
- potency/activity relative to vesamicol, in words (vesamicol receptor [2]): between two and eight times less potent than vesamicol

Compound: OC1Cc2ccccc2CC1N1CCC2(C=Cc3ccc(Br)cc32)CC1 (centres unmarked) [Compound 17, 1'-(2-Hydroxy-1,2,3,4-tetrahydronaphth-3-yl)spiro[6-bromo-1H-indene-1,4'-piperidine]Hydrochloride]
- Ki (vesamicol receptor [1]): 0.271 ± 0.056 nM
- effect of bromine on potency (vesamicol receptor [1]; in words): slight reduction in potency

Compound: OC1CCN(Cc2cccc(I)c2)CC1N1CCC2(CCCc3ccccc32)CC1 (centres unmarked) [Compound 13d, 1'-(1-(3-Iodobenzyl)-4-hydroxypiperidin-3-yl)-3,4-dihydrospiro[naphthalene-1(2H),4'-piperidine]]
- Pharmacological Activity ([3]; 50 umol/Kg): S
- Pharmacological Activity ([3]; 125 umol/Kg): LD100
- Ki (vesamicol receptor [1]): 0.082 ± 0.02 nM
- potency relative to vesamicol, in words (vesamicol receptor [1]; compared with vesamicol / (-)-vesamicol): at least ten times more potent than (-)-vesamicol

Compound: OC1CCN(Cc2ccccc2I)CC1N1CCC2(C=Cc3ccccc32)CC1 (centres unmarked) [Compound 11c, 1'-(4-Hydroxy1-(2-iodobenzyl)piperidin-3-yl)-spiro[1H-indene-1,4'-piperidine]dihydrochloride]
- Ki (vesamicol receptor [1]): 0.798 ± 0.187 nM

Compound: OC(Cc1ccc(Br)cc1)CN1CCC(c2ccccc2)CC1 (centres unmarked) [Compound 2a]
- potency/activity relative to vesamicol, in words (vesamicol receptor [2]): equipotent with vesamicol

Compound: OC1CCN(Cc2ccc(F)cc2)CC1N1CCC2(CCCc3ccccc32)CC1 (centres unmarked) [Compound 13f, 1'-(1-(4-fluorobenzyl)-4-hydroxypiperidin-3-yl)-3,4-dihydrospiro[naphthalene-1(2H),4'-piperidine]]
- Ki (vesamicol receptor [1]): 2.6 ± 0.9 nM

Compound: O=[N+]([O-])c1ccc(C2CCN([C@@H]3CCCC[C@H]3O)CC2)cc1 (relative stereo) [Compound 1c]
- potency/activity relative to vesamicol, in words (vesamicol receptor [2]): between two and eight times less potent than vesamicol

Compound: O[C@@H]1CCCC[C@H]1N1CCc2ccccc2C1 (relative stereo) [Compound 6a]
- loss of activity relative to vesamicol (vesamicol receptor [2]; less active than vesamicol): 125 times

Compound: O=C1NCN(c2ccccc2)C12CCN([C@@H]1CCCC[C@H]1O)CC2 (relative stereo) [Compound 6b]
- potency/activity relative to vesamicol, in words (vesamicol receptor [2]): inactive

Compound: OC1Cc2ccccc2CC1N1CCC2(C=Cc3ccccc32)CC1 (centres unmarked) [Compound 11b, 1'-(2-Hydroxy-1,2,3,4-tetrahydronaphth-3-yl)-spiro[1H-indene-1,4'-piperidine]Hydrochloride]
- Pharmacological Activity ([3]; 1 umol/Kg): ++
- Pharmacological Activity ([3]; 5 umol/Kg): LD100
- Pharmacological Activity ([3]; 10 umol/Kg): LD100
- Pharmacological Activity ([3]; 20 umol/Kg): LD100
- Ki (vesamicol receptor [1]): 0.121 ± 0.032 nM
- Pharmacological Activity ([4]; 1.25 umol/Kg): +
- Pharmacological Activity ([4]; 2.5 umol/Kg): LD20 (lethal dose for 20% of animals tested)
- Pharmacological Activity ([4]; 5.0 umol/Kg): LD20 (lethal dose for 20% of animals tested)
- Pharmacological Activity ([4]; 10 umol/Kg): LD40 (lethal dose for 40%)
- Pharmacological Activity ([4]; 20 umol/Kg): LD60 (lethal dose for 60%)
- Pharmacological Activity ([4]; 40 umol/Kg): LD100

Compound: O[C@@H]1CCCC[C@H]1N1CCC(c2ccccc2)CC1 [(-)-vesamicol, reference compound]
- Kd (vesamicol receptor [1]; conditions of this assay, read-out: dissociation constant (kd)): 1 nM

Compound: COc1ccc2c3c1OC1C(=O)CCC4C(C2)N([C@@H]2CCCC[C@H]2O)CCC314 (some centres unmarked) [Compound 7b]
- potency/activity relative to vesamicol, in words (vesamicol receptor [2]): inactive

Compound: OC1Cc2ccccc2CC1N1CCC2(CCCc3ccccc32)CC1 (centres unmarked) [Compound 13b, 3,4-Dihydro-1'-(2-hydroxy-1,2,3,4-tetrahydronaphth-3-yl)-spiro[naphthalene-1(2H), 4'-piperidine]hydrochloride]
- Ki (vesamicol receptor [1]): 18.4 ± 14 nM

Compound: OC1CCN(Cc2ccccc2I)CC1N1CCC2(CCCc3ccccc32)CC1 (centres unmarked) [Compound 13c, 1'-(1-(2-Iodobenzyl)-4-hydroxypiperidin-3-yl)-3,4-dihydrospiro[naphthalene-1(2H),4'-piperidine]]
- Ki (vesamicol receptor [1]): 5.8 ± 1.7 nM

Compound: OC1CCCCC1N1CCC2(CCCc3ccccc32)CC1 (centres unmarked) [Compound 13a, 3,4-Dihydro-1'-(2-Hydroxycyclohex-1-yl)-spiro[naphthalene-1,4'-piperidine]hydrochloride]
- Ki (vesamicol receptor [1]): 24.2 ± 5.71 nM

Compound: OC1CCNCC1N1CCC(c2ccccc2)CC1 (centres unmarked) [trozamicol]
- potency/activity relative to vesamicol, in words (vesamicol receptor [2]): poor ligand for vesamicol receptor

Compound: OC1CCN(Cc2cccc(I)c2)CC1N1CCC2(C=Cc3ccccc32)CC1 (centres unmarked) [Compound 11d, 1'-(4-Hydroxy1-(3-iodobenzyl)piperidin-3-yl)-spiro[1H-indene-1,4'-piperidine]dihydrochloride]
- Ki (vesamicol receptor [1]): 0.264 ± 0.078 nM

Compound: OC1Cc2ccccc2CC1N1CCC2(CC1)C(Br)=Cc1ccccc12 (centres unmarked) [Compound 14, 1'-(2-Hydroxy-1,2,3,4-tetrahydronaphth-3-yl)-spiro[2-bromo-1H-indene-1,4'-piperidine]Hydrochloride]
- Pharmacological Activity ([3]; 12.5 umol/Kg): +
- Pharmacological Activity ([3]; 25 umol/Kg): LD100
- Pharmacological Activity ([3]; 50 umol/Kg): LD100
- increase in potency on bromine substitution at C2 (vesamicol receptor [1]; 11a vs 14): 20 fold
- Ki (vesamicol receptor [1]): 0.038 ± 0.006 nM

Compound: OC1CCCCC1N1CCC2(C=Cc3ccccc32)CC1 (centres unmarked) [Compound 11a, 1'-(2-Hydroxycylohex-1-yl)spiro[1H-indene-1,4'-piperidine]Hydrochloride]
- Pharmacological Activity ([3]; 10 umol/Kg): +
- Pharmacological Activity ([3]; 22.5 umol/Kg): ++
- Pharmacological Activity ([3]; 45 umol/Kg): LD100
- Ki (vesamicol receptor [1]): 0.622 ± 0.082 nM
- Pharmacological Activity ([4]; 12.5 umol/Kg): +
- Pharmacological Activity ([4]; 25 umol/Kg): LD40 (lethal dose for 40%)
- Pharmacological Activity ([4]; 50 umol/Kg): LD60 (lethal dose for 60%)
- Pharmacological Activity ([4]; 100 umol/Kg): LD100

Compound: OC1CCCCC1N1CCC(c2ccccc2)CC1 (centres unmarked) [Compound 1, 2-(4-phenylpiperidino)cyclohexanol]
- effects in laboratory animals [5]: induces respiratory paralysis, spasms and death
- effect on storage and release of neurotransmitter [6]: selectively inhibits the storage and release of neurotransmitter
- effect on synthesis of neurotransmitter [6]: without directly affecting the synthesis of this neurotransmitter
- Ki (vesamicol receptor [1]): 1 nM
- α-adrenoceptor activity (α-adrenoceptor): exhibits α-adrenoceptor activity at higher doses

Compound: COc1ccc2c3c1OC1C(O)C=CC4C(C2)N([C@@H]2CCCC[C@H]2O)CCC341 (some centres unmarked) [Compound 7a]
- potency/activity relative to vesamicol, in words (vesamicol receptor [2]): inactive

Compound: OC1Cc2ccccc2CC1N1CCC2(C=Cc3cc(Br)ccc32)CC1 (centres unmarked) [Compound 16, 1'-(2-Hydroxy-1,2,3,4-tetrahydronaphth-3-yl)-spiro[5-bromo-1H-indene-1,4'-piperidine]Hydrochloride]
- Ki (vesamicol receptor [1]): 1.4 ± 0.3 nM

Compound: OC1CCN(Cc2cccc(I)c2)CC1N1CCC(c2ccccc2)CC1 (centres unmarked) [MIBT]
- potency/activity relative to vesamicol, in words (vesamicol receptor [2]): potent ligands

Compound: OC1Cc2ccccc2CC1N1CCC2(C=Cc3c(Br)cccc32)CC1 (centres unmarked) [Compound 15, 1'-(2-Hydroxy-1,2,3,4-tetrahydronaphth-3-yl)-spiro[4-bromo-1H-indene-1,4'-piperidine]Hydrochloride]
- Pharmacological Activity ([3]; 50 umol/Kg): +
- Ki (vesamicol receptor [1]): 0.212 ± 0.063 nM
